Ten compounds from ChEMBL document CHEMBL1201862, “PubChem BioAssay data set” (2004) can be followed below.

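Tested at 5 concentrations; 48 h exposure; 96-well plates; endpoints linearly interpolated, else capped at highest concentration. Abbreviation: GI50, concentration required for 50% inhibition of growth.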 Activity calls are given as the source filed them. No stated cut-off is given here; in the data, active = GI50 up to about 1.1 µM and inactive = higher.

Test systems include UACC-257; SF-539; MDA-MB-231; SN12C; SK-MEL-5; HT-29; A498; 786-0; U-251; A549; DU-145; RPMI-8226; LOX IMVI; T47D; SK-OV-3; KM12; MDA-MB-435; SK-MEL-28; CCRF-CEM; OVCAR-5.
Common to all, as to assay: DTP human tumour cell line panel, 48 h

By GI50 is commonly meant the concentration at which growth is held to half of that of the control. Consider `CC(=O)c1c(-c2ccccc2)c(-c2ccc(OCCN(C)C)cc2)n2ccccc12`, for which the GI50 in the test on UACC-257 was 15.5 µM (inactive); in the test on SF-539, 13.9 µM (inactive); in the test with MDA-MB-231 it was 16.9 µM (inactive); in the test on SN12C it was 16 µM (inactive); in the test with SK-MEL-5 it was 10.3 µM (inactive); in the test with HT-29 it was 3.44 µM (inactive). For the same compound, the GI50 is 19.2 µM (inactive) with A498; 18.3 µM (inactive) in the test with 786-0; 17 µM (inactive) in the test on U-251; 21.2 µM (inactive) in the test on A549; 16.8 µM (inactive) in the test on DU-145; 20.8 µM (inactive) with RPMI-8226. Besides, the GI50 with LOX IMVI is 15.7 µM (inactive); with T47D, 16.7 µM (inactive); in the test with SK-OV-3, 19.2 µM (inactive); in the test with KM12, 13.5 µM (inactive); in the test with MDA-MB-435, 17.7 µM (inactive); with SK-MEL-28, 15.2 µM (inactive). Moreover, the GI50 in the test with CCRF-CEM is 21 µM (inactive); in the test with OVCAR-5, 47.8 µM (inactive).

Consider `CC(C)=CC(=O)c1[nH]c2ccccc2c1CC(=O)NCCc1cn(C(c2ccccc2)(c2ccccc2)c2ccccc2)cn1`, for which the GI50 is 3.67 µM (inactive) with UACC-257; 2.69 µM (inactive) in the test with SF-539; 2.16 µM (inactive) in the test on MDA-MB-231; 2.81 µM (inactive) in the test on SN12C; 2.08 µM (inactive) in the test with SK-MEL-5; 3.32 µM (inactive) in the test on HT-29. Besides, the GI50 was 4.22 µM (inactive) in the test on A498; 3.82 µM (inactive) in the test with 786-0; 2.82 µM (inactive) in the test on U-251; 2.87 µM (inactive) with A549; 5.13 µM (inactive) in the test on DU-145; 1.98 µM (inactive) in the test with RPMI-8226. In addition, the GI50 in the test on LOX IMVI is 2.02 µM (inactive); in the test with T47D, 3.77 µM (inactive); with SK-OV-3, 13.5 µM (inactive); in the test on KM12, 3.29 µM (inactive); in the test with MDA-MB-435, 2.06 µM (inactive); in the test on SK-MEL-28 it was 3.4 µM (inactive). Further, the GI50 in the test with CCRF-CEM is 2.48 µM (inactive); in the test with OVCAR-5 it was 3.39 µM (inactive).

Take `Clc1ccc(C2C3COc4ccccc4C3=NN2c2ccccc2)cc1` (stereo not given): the GI50 in the test on UACC-257 is > 100 µM (inactive); in the test with SF-539, 34.4 µM (inactive); in the test on MDA-MB-231, 59.3 µM (inactive); with SN12C it was 43.6 µM (inactive); in the test with SK-MEL-5, > 82.8 µM (inactive); in the test on HT-29, 29.4 µM (inactive). In addition, the GI50 with A498 was > 100 µM (inactive); with 786-0, > 29.6 µM (inactive); with U-251 it was 36.1 µM (inactive); in the test with A549 it was > 100 µM (inactive); with DU-145 it was > 80.5 µM (inactive); with RPMI-8226 it was 2.1 µM (inactive). Moreover, the GI50 is 7.19 µM (inactive) with LOX IMVI; > 69.7 µM (inactive) in the test with T47D; > 100 µM (inactive) in the test on SK-OV-3; 20.7 µM (inactive) with KM12; 36.5 µM (inactive) with MDA-MB-435; 99.5 µM (inactive) in the test with SK-MEL-28. Also, the GI50 in the test on CCRF-CEM is 2.38 µM (inactive); in the test on OVCAR-5, > 100 µM (inactive).

Take `CN(C)CCNc1nc2ccccc2c2c1C(=O)c1ccccc1-2`: the GI50 is 0.538 µM (active) in the test with UACC-257; 0.382 µM (active) in the test with SF-539; 0.542 µM (active) with MDA-MB-231; 0.0565 µM (active) in the test on SN12C; 0.301 µM (active) with SK-MEL-5; 0.191 µM (active) with HT-29. Moreover, the GI50 with A498 is 0.163 µM (active); in the test on 786-0, 0.132 µM (active); in the test with U-251 it was 0.219 µM (active); in the test with A549, 0.0581 µM (active); with DU-145, 0.149 µM (active); in the test on RPMI-8226, 0.123 µM (active). The concentration for 50% growth inhibition (GI50) is 0.147 µM (active) in the test with LOX IMVI; 0.281 µM (active) with T47D; 0.703 µM (active) with SK-OV-3; 0.326 µM (active) with KM12; 0.288 µM (active) in the test with MDA-MB-435; 0.471 µM (active) with SK-MEL-28. Further, the values for the GI50 with CCRF-CEM and in the test on OVCAR-5 were 0.0923 µM (active) and 0.367 µM (active), respectively.

For `CCOC(=O)/C(=N\Nc1ccc(-n2c(C)nc3ccccc3c2=O)cc1)C(C)=O`, the GI50 with UACC-257 was 26.4 µM (inactive); in the test with SF-539, 51.8 µM (inactive); in the test with MDA-MB-231, > 100 µM (inactive); in the test on SN12C it was > 100 µM (inactive); in the test on SK-MEL-5, 2.25 µM (inactive); in the test on HT-29, 53.6 µM (inactive). Moreover, the GI50 in the test on A498 is 99.3 µM (inactive); with 786-0, > 100 µM (inactive); in the test with U-251 it was > 100 µM (inactive); in the test on A549, 49.9 µM (inactive); in the test with DU-145, 80.2 µM (inactive); in the test with RPMI-8226 it was 11.6 µM (inactive). The GI50 in the test with LOX IMVI is 32.1 µM (inactive); in the test on T47D, 21 µM (inactive); in the test with SK-OV-3, 74 µM (inactive); in the test on KM12, 17.7 µM (inactive); in the test on MDA-MB-435, 17.5 µM (inactive); with SK-MEL-28, 20.3 µM (inactive). Besides, the GI50 with CCRF-CEM is 40.3 µM (inactive); in the test on OVCAR-5 it was > 100 µM (inactive).

As for `CC[C@]1(O)CC(OC2CC(N(C)C)C(O)C(C)O2)c2c(cc3c(c2O)C(=O)c2c(O)cccc2C3=O)[C@@H]1C(=O)OC` (stereo not given in full), the GI50 was 0.347 µM (active) in the test with UACC-257; 0.59 µM (active) in the test on SF-539; 0.351 µM (active) in the test with MDA-MB-231; 0.178 µM (active) in the test with SN12C; 0.192 µM (active) in the test with SK-MEL-5; 0.107 µM (active) in the test with HT-29. Besides, the GI50 was 0.232 µM (active) in the test on A498; 0.205 µM (active) in the test with 786-0; 0.151 µM (active) in the test with U-251; 0.136 µM (active) with A549; 0.675 µM (active) in the test with DU-145; 0.125 µM (active) with RPMI-8226. Further, the GI50 in the test with LOX IMVI is 0.0859 µM (active); in the test on T47D it was 0.649 µM (active); in the test with SK-OV-3, 0.333 µM (active); in the test with KM12, 0.225 µM (active); with MDA-MB-435, 0.291 µM (active); in the test with SK-MEL-28, 0.664 µM (active). For the same compound, the GI50 in the test on CCRF-CEM was 0.117 µM (active); in the test with OVCAR-5, 0.718 µM (active).

On to `N#Cc1c(-c2ccccc2)cc(Nc2ccc(Cl)cc2)n2c1nc1ccccc12`, for which the GI50 in the test with UACC-257 was 1.91 µM (inactive); in the test on SF-539, 4.39 µM (inactive); in the test on MDA-MB-231 it was 3.27 µM (inactive); with SN12C, 2.28 µM (inactive); with SK-MEL-5 it was 1.46 µM (inactive); with HT-29, 2.14 µM (inactive). The GI50 is 3.71 µM (inactive) with A498; 2.62 µM (inactive) with 786-0; 2.49 µM (inactive) in the test on U-251; 1.71 µM (inactive) with A549; 3.45 µM (inactive) in the test with DU-145; 1.22 µM (inactive) with RPMI-8226. Besides, the GI50 in the test on LOX IMVI is 3.75 µM (inactive); in the test on T47D it was 2.71 µM (inactive); with SK-OV-3 it was 2.72 µM (inactive); with KM12, 2.94 µM (inactive); in the test on MDA-MB-435, 2.99 µM (inactive); in the test with SK-MEL-28, > 55 µM (inactive). Moreover, the GI50 in the test with CCRF-CEM was 4.66 µM (inactive); in the test with OVCAR-5 it was 3.9 µM (inactive).

Take `CCOC(=O)c1c(N)nn2c1cc1cccccc12`: the GI50 with UACC-257 is 27.4 µM (inactive); with SF-539, 51.5 µM (inactive); in the test with MDA-MB-231, 43 µM (inactive); in the test with SN12C, 32.9 µM (inactive); in the test on SK-MEL-5, 26.1 µM (inactive); with HT-29, 36.2 µM (inactive). Besides, the GI50 in the test on A498 is 29.4 µM (inactive); in the test on 786-0 it was 34.4 µM (inactive); in the test with U-251, 24 µM (inactive); in the test on A549, 36.8 µM (inactive); in the test with DU-145 it was 32.1 µM (inactive); with RPMI-8226 it was 18.3 µM (inactive). Besides, the GI50 in the test on LOX IMVI was 25.1 µM (inactive); with T47D it was 22.6 µM (inactive); in the test with SK-OV-3 it was 26.8 µM (inactive); in the test on KM12, 20.8 µM (inactive); in the test with MDA-MB-435, 31.8 µM (inactive); with SK-MEL-28 it was 29.9 µM (inactive). The GI50 in the test with CCRF-CEM is 43.5 µM (inactive); in the test on OVCAR-5 it was 59.8 µM (inactive).

For the compound `N#CC(c1ccccc1)N1CCCN(C(C#N)c2ccccc2)C1c1ccccc1O` (stereo not given), the GI50 is > 100 µM (inactive) in the test with UACC-257; 52.1 µM (inactive) with SF-539; > 100 µM (inactive) in the test on MDA-MB-231; > 100 µM (inactive) in the test on SN12C; > 100 µM (inactive) in the test with SK-MEL-5; 55.8 µM (inactive) in the test with HT-29. Also, the GI50 with A498 is > 100 µM (inactive); with 786-0 it was > 100 µM (inactive); in the test on U-251, > 100 µM (inactive); in the test with A549, > 100 µM (inactive); with DU-145, > 100 µM (inactive); in the test on RPMI-8226, 60.5 µM (inactive). Also, the GI50 in the test with LOX IMVI, in the test with T47D, in the test on SK-OV-3, in the test on KM12, in the test with MDA-MB-435 and in the test on SK-MEL-28 was > 100 µM (inactive) throughout. Moreover, the GI50 with CCRF-CEM was 40.1 µM (inactive); with OVCAR-5, > 100 µM (inactive).

As for `CN(C)c1ccc(/C=c2/c3ccccc3n3c2cc(NC(=O)NCCC[N+](C)(C)C)[n+]3C)cc1`, the GI50 in the test on UACC-257 was > 100 µM (inactive); with SF-539, 53.1 µM (inactive); in the test on MDA-MB-231, > 100 µM (inactive); with SN12C, 0.432 µM (active); in the test on SK-MEL-5 it was 47.6 µM (inactive); with HT-29, > 100 µM (inactive). The GI50 in the test with A498 is > 100 µM (inactive); in the test with 786-0, > 100 µM (inactive); in the test on U-251 it was 50 µM (inactive); with A549 it was > 100 µM (inactive); with DU-145, > 100 µM (inactive); in the test with RPMI-8226 it was 22.9 µM (inactive). Further, the GI50 with LOX IMVI was 61.2 µM (inactive); in the test with T47D, 6.41 µM (inactive); in the test on SK-OV-3, > 100 µM (inactive); with KM12, > 100 µM (inactive); in the test on MDA-MB-435 it was > 100 µM (inactive); in the test on SK-MEL-28 it was > 100 µM (inactive). In addition, the GI50 in the test with CCRF-CEM was 0.452 µM (active); in the test with OVCAR-5, > 100 µM (inactive).
